According to ChEMBL document CHEMBL5154747, “Discovery of new carbonic anhydrase IX inhibitors as anticancer agents by toning the hydrophobic and hydrophilic rims of the active site to encounter the dual-tail approach” (Eur J Med Chem, 2022):

What was measured:
[1] = test system: SNB-75; test: Anticancer activity against human SNB-75 cells assessed as cell growth inhibition at 10 uM incubated for 48 hrs by SRB assay relative to control; format: functional; conditions: read-out: GI
[2] = test system: Hs-578T; test: Anticancer activity against human Hs-578T cells assessed as cell growth inhibition at 10 uM incubated for 48 hrs by SRB assay relative to control; format: functional; conditions: read-out: GI
[3] = test system: NCI-H460; test: Anticancer activity against human NCI-H460 cells assessed as cell growth inhibition at 10 uM incubated for 48 hrs by SRB assay relative to control; format: functional; conditions: read-out: GI
[4] = biological target: Carbonic anhydrase 9 (Homo sapiens, UniProt Q16790); test: Inhibition of recombinant human CA 9 preincubated for 15 mins by phenol red dye based stopped flow CO2 hydration assay
[5] = test system: Malme-3M; test: Anticancer activity against human Malme-3M cells assessed as cell growth inhibition at 10 uM incubated for 48 hrs by SRB assay relative to control; format: functional; conditions: read-out: GI
[6] = test system: ACHN; test: Anticancer activity against human ACHN cells assessed as cell growth inhibition at 10 uM incubated for 48 hrs by SRB assay relative to control; format: functional; conditions: read-out: GI
[7] = test system: RXF 393; test: Anticancer activity against human RXF 393 cells assessed as cell growth inhibition at 10 uM incubated for 48 hrs by SRB assay relative to control; format: functional; conditions: read-out: GI
[8] = test system: OVCAR-5; test: Anticancer activity against human OVCAR-5 cells assessed as cell growth inhibition at 10 uM incubated for 48 hrs by SRB assay relative to control; format: functional; conditions: read-out: GI
[9] = test system: CAKI-1; test: Anticancer activity against human CAKI-1 cells assessed as cell growth inhibition at 10 uM incubated for 48 hrs by SRB assay relative to control; format: functional; conditions: read-out: GI
[10] = test system: HOP-92; test: Anticancer activity against human HOP-92 cells assessed as cell growth inhibition at 10 uM incubated for 48 hrs by SRB assay relative to control; format: functional; conditions: read-out: GI
[11] = test system: SNB-19; test: Anticancer activity against human SNB-19 cells assessed as cell growth inhibition at 10 uM incubated for 48 hrs by SRB assay relative to control; format: functional; conditions: read-out: GI
[12] = test system: IGROV-1; test: Anticancer activity against human IGROV-1 cells assessed as cell growth inhibition at 10 uM incubated for 48 hrs by SRB assay relative to control; format: functional; conditions: read-out: GI
[13] = test system: COLO 205; test: Anticancer activity against human COLO 205 cells assessed as cell growth inhibition at 10 uM incubated for 48 hrs by SRB assay relative to control; format: functional; conditions: read-out: GI
[14] = test system: SN12C; test: Anticancer activity against human SN12C cells assessed as cell growth inhibition at 10 uM incubated for 48 hrs by SRB assay relative to control; format: functional; conditions: read-out: GI
[15] = test system: T47D; test: Anticancer activity against human T47D cells assessed as cell growth inhibition at 10 uM incubated for 48 hrs by SRB assay relative to control; format: functional; conditions: read-out: GI
[16] = test system: SK-MEL-28; test: Anticancer activity against human SK-MEL-28 cells assessed as cell growth inhibition at 10 uM incubated for 48 hrs by SRB assay relative to control; format: functional; conditions: read-out: GI
[17] = test system: LOX IMVI; test: Anticancer activity against human LOX IMVI cells assessed as cell growth inhibition at 10 uM incubated for 48 hrs by SRB assay relative to control; format: functional; conditions: read-out: GI
[18] = test system: NCI-H522; test: Anticancer activity against human NCI-H522 cells assessed as cell growth inhibition at 10 uM incubated for 48 hrs by SRB assay relative to control; format: functional; conditions: read-out: GI
[19] = test system: HT-29; test: Anticancer activity against human HT-29 cells assessed as cell growth inhibition at 10 uM incubated for 48 hrs by SRB assay relative to control; format: functional; conditions: read-out: GI
[20] = test system: RPMI-8226; test: Anticancer activity against human RPMI-8226 cells assessed as cell growth inhibition at 10 uM incubated for 48 hrs by SRB assay relative to control; format: functional; conditions: read-out: GI
[21] = test system: CCRF-CEM; test: Anticancer activity against human CCRF-CEM cells assessed as cell growth inhibition at 10 uM incubated for 48 hrs by SRB assay relative to control; format: functional; conditions: read-out: GI
[22] = test system: 786-0; test: Anticancer activity against human 786-0 cells assessed as cell growth inhibition at 10 uM incubated for 48 hrs by SRB assay relative to control; format: functional; conditions: read-out: GI
[23] = test system: OVCAR-8; test: Anticancer activity against human OVCAR-8 cells assessed as cell growth inhibition at 10 uM incubated for 48 hrs by SRB assay relative to control; format: functional; conditions: read-out: GI
[24] = test system: NCI-H23; test: Anticancer activity against human NCI-H23 cells assessed as cell growth inhibition at 10 uM incubated for 48 hrs by SRB assay relative to control; format: functional; conditions: read-out: GI
[25] = test system: SK-OV-3; test: Anticancer activity against human SK-OV-3 cells assessed as cell growth inhibition at 10 uM incubated for 48 hrs by SRB assay relative to control; format: functional; conditions: read-out: GI
[26] = test system: K562; test: Anticancer activity against human K562 cells assessed as cell growth inhibition at 10 uM incubated for 48 hrs by SRB assay relative to control; format: functional; conditions: read-out: GI
[27] = test system: HCC 2998; test: Anticancer activity against human HCC 2998 cells assessed as cell growth inhibition at 10 uM incubated for 48 hrs by SRB assay relative to control; format: functional; conditions: read-out: GI
[28] = test system: SK-MEL-5; test: Anticancer activity against human SK-MEL-5 cells assessed as cell growth inhibition at 10 uM incubated for 48 hrs by SRB assay relative to control; format: functional; conditions: read-out: GI
[29] = test system: HCT-116; test: Anticancer activity against human HCT-116 cells assessed as cell growth inhibition at 10 uM incubated for 48 hrs by SRB assay relative to control; format: functional; conditions: read-out: GI
[30] = test system: EKVX; test: Anticancer activity against human EKVX cells assessed as cell growth inhibition at 10 uM incubated for 48 hrs by SRB assay relative to control; format: functional; conditions: read-out: GI
[31] = test system: SR; test: Anticancer activity against human SR cells assessed as cell growth inhibition at 10 uM incubated for 48 hrs by SRB assay relative to control; format: functional; conditions: read-out: GI
[32] = test system: MDA-MB-468; test: Anticancer activity against human MDA-MB-468 cells assessed as cell growth inhibition at 10 uM incubated for 48 hrs by SRB assay relative to control; format: functional; conditions: read-out: GI
[33] = test system: U-251; test: Anticancer activity against human U-251 cells assessed as cell growth inhibition at 10 uM incubated for 48 hrs by SRB assay relative to control; format: functional; conditions: read-out: GI
[34] = test system: HL-60(TB); test: Anticancer activity against human HL-60(TB) cells assessed as cell growth inhibition at 10 uM incubated for 48 hrs by SRB assay relative to control; format: functional; conditions: read-out: GI
[35] = test system: UO-31; test: Anticancer activity against human UO-31 cells assessed as cell growth inhibition at 10 uM incubated for 48 hrs by SRB assay relative to control; format: functional; conditions: read-out: GI
[36] = test system: HCT-15; test: Anticancer activity against human HCT-15 cells assessed as cell growth inhibition at 10 uM incubated for 48 hrs by SRB assay relative to control; format: functional; conditions: read-out: GI
[37] = test system: SF-539; test: Anticancer activity against human SF-539 cells assessed as cell growth inhibition at 10 uM incubated for 48 hrs by SRB assay relative to control; format: functional; conditions: read-out: GI
[38] = test system: SW-620; test: Anticancer activity against human SW-620 cells assessed as cell growth inhibition at 10 uM incubated for 48 hrs by SRB assay relative to control; format: functional; conditions: read-out: GI
[39] = test system: UACC-62; test: Anticancer activity against human UACC-62 cells assessed as cell growth inhibition at 10 uM incubated for 48 hrs by SRB assay relative to control; format: functional; conditions: read-out: GI
[40] = test system: OVCAR-3; test: Anticancer activity against human OVCAR-3 cells assessed as cell growth inhibition at 10 uM incubated for 48 hrs by SRB assay relative to control; format: functional; conditions: read-out: GI

Row | SMILES | inhibition of growth at 10 µM [1] | inhibition of growth at 10 µM [2] | inhibition of growth at 10 µM [3] | Ki [4] | inhibition of growth at 10 µM [5] | inhibition of growth at 10 µM [6] | inhibition of growth at 10 µM [7] | inhibition of growth at 10 µM [8] | inhibition of growth at 10 µM [9] | inhibition of growth at 10 µM [10] | inhibition of growth at 10 µM [11] | inhibition of growth at 10 µM [12] | inhibition of growth at 10 µM [13] | inhibition of growth at 10 µM [14] | inhibition of growth at 10 µM [15] | inhibition of growth at 10 µM [16] | inhibition of growth at 10 µM [17] | inhibition of growth at 10 µM [18] | inhibition of growth at 10 µM [19] | inhibition of growth at 10 µM [20] | other results
1 | NS(=O)(=O)c1ccc(Nc2nc(N/N=C/c3ccc4c(c3)OCO4)nc(Nc3ccccc3)n2)cc1 | 46% | 47% | 97% | 29.3 nM | 41% | 42% | 77% | < 10% | 54% | 33% | 44% | 63% | 50% | 45% | 45% | 32% | 73% | 39% | 59% | 45% | inhibition of growth at 10 µM [21]: 83%; inhibition of growth at 10 µM [22]: 38%; inhibition of growth at 10 µM [23]: 50%; inhibition of growth at 10 µM [24]: 74%; inhibition of growth at 10 µM [25]: 34%; inhibition of growth at 10 µM [26]: 66%; inhibition of growth at 10 µM [27]: 76%; inhibition of growth at 10 µM [28]: 45%; inhibition of growth at 10 µM [29]: 63%; inhibition of growth at 10 µM [30]: 26%; inhibition of growth at 10 µM [31]: 79%; inhibition of growth at 10 µM [32]: 53%; inhibition of growth at 10 µM [33]: 44%; inhibition of growth at 10 µM [34]: 68%; inhibition of growth at 10 µM [35]: 23%; inhibition of growth at 10 µM [36]: 17%; inhibition of growth at 10 µM [37]: 83%; inhibition of growth at 10 µM [38]: 50%; inhibition of growth at 10 µM [39]: 21%; inhibition of growth at 10 µM [40]: 51%
2 | NS(=O)(=O)c1ccc(Nc2nc(N/N=C/C=C/c3ccccc3)nc(Nc3ccccc3)n2)cc1 | 57% | 60% | 93% | 233 nM | 49% | 61% | 108% | < 10% | 53% | 16% | 51% | 63% | 44% | 51% | 81% | 39% | 72% | 33% | 65% | 71% | inhibition of growth at 10 µM [21]: 75%; inhibition of growth at 10 µM [22]: 62%; inhibition of growth at 10 µM [23]: 50%; inhibition of growth at 10 µM [24]: 59%; inhibition of growth at 10 µM [25]: 21%; inhibition of growth at 10 µM [26]: 72%; inhibition of growth at 10 µM [27]: 61%; inhibition of growth at 10 µM [28]: 59%; inhibition of growth at 10 µM [29]: 70%; inhibition of growth at 10 µM [30]: 28%; inhibition of growth at 10 µM [31]: 85%; inhibition of growth at 10 µM [32]: 84%; inhibition of growth at 10 µM [33]: 48%; inhibition of growth at 10 µM [34]: 61%; inhibition of growth at 10 µM [35]: 60%; inhibition of growth at 10 µM [36]: 55%; inhibition of growth at 10 µM [37]: 60%; inhibition of growth at 10 µM [38]: 48%; inhibition of growth at 10 µM [39]: 33%; inhibition of growth at 10 µM [40]: 55%
